From patent publication US12331046B2, “CTPS1 inhibitors and uses thereof” (Nimbus Clotho, Inc., priority 2020, dated 2025) come the findings set out here.

This assay deals with human CTPS1 (Homo sapiens (Human), UniProt P17812). Put plainly: hCTPS1 biochemical assay (ADP-Glo). The note with it: hCTPS1 25 nM, ATP 120 uM, UTP 160 uM, GTP 60 uM, L-Glutamine 100 uM, 25 degrees C.
human CTPS1, sequence (P17812 whole entry): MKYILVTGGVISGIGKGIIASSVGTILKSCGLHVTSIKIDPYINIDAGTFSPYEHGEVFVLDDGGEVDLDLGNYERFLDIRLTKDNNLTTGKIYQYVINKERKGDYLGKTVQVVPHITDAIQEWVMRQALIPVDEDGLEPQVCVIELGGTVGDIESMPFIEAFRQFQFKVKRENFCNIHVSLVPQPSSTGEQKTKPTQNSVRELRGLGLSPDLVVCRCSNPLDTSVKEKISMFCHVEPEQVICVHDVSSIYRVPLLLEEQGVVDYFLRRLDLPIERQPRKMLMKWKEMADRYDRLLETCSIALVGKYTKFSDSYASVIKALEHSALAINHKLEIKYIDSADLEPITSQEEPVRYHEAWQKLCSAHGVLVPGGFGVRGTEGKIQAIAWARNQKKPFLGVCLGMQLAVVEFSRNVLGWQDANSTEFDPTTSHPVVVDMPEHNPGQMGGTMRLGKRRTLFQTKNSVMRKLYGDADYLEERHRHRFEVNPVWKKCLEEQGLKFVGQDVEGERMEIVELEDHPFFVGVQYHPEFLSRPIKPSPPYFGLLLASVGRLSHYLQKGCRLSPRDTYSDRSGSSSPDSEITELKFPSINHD
`CCOc1cncc(-c2cnc(C(=O)NC(CCN3CCC3)c3cc(NS(=O)(=O)C4CC4)ccn3)s2)n1` (stereo not shown) [I-182, N-(3-(azetidin-1-yl)-1-(4-(cyclopropanesulfonamido)pyridin-2-yl)propyl)-5-(6-ethoxypyrazin-2-yl)thiazole-2-carboxamide] yielded an IC50 of at least 1000 nM.

Regarding `CCOc1cncc(-c2cnc(C(=O)N[C@@H](CCOC)c3cc(NS(=O)(=O)C4CC4)ccn3)s2)n1` [I-183, (S)—N-(1-(4-(cyclopropanesulfonamido)pyridin-2-yl)-3-methoxypropyl)-5-(6-ethoxypyrazin-2-yl)thiazole-2-carboxamide], the IC50 is below 100 nM.

The compound `CCOc1cncc(-c2cnc(C(=O)N[C@H](CCOC)c3cc(NS(=O)(=O)C4CC4)ccn3)s2)n1` [I-184, (R)—N-(1-(4-(cyclopropanesulfonamido)pyridin-2-yl)-3-methoxypropyl)-5-(6-ethoxypyrazin-2-yl)thiazole-2-carboxamide] displayed an IC50 below 100 nM.

In turn, `Cc1cc2c(-c3cnc(C(=O)NCc4cc(NS(=O)(=O)C5CC5)ccn4)s3)cncn2n1` [I-185] yielded an IC50 of 100 to 1000 nM.

`CCOc1cncc(-c2cnc(C(=O)NC(CCOC)c3cc(NS(=O)(=O)C4CC4)ccn3)s2)n1` (stereo not shown) [I-186]: the IC50 was below 100 nM.

`CCOc1cncc(-c2cnc(C(=O)N[C@@H](COC)c3cc(NS(=O)(=O)C4CC4)ccn3)s2)n1` [I-187] displayed an IC50 below 100 nM.

Take `CCOc1cncc(-c2cnc(C(=O)N[C@H](COC)c3cc(NS(=O)(=O)C4CC4)ccn3)s2)n1` [I-188]: the IC50 is below 100 nM.

Regarding `CCOc1cncc(-c2cnc(C(=O)N[C@H](CCN(C)C)c3cc(NS(=O)(=O)C4CC4)ccn3)s2)n1` [I-189, (R)—N-(1-(4-(cyclopropanesulfonamido)pyridin-2-yl)-3-(dimethylamino)propyl)-5-(6-ethoxypyrazin-2-yl)thiazole-2-carboxamide], the IC50 is below 100 nM.

Consider `CCOc1cncc(-c2cnc(C(=O)N[C@@H](CCN(C)C)c3cc(NS(=O)(=O)C4CC4)ccn3)s2)n1` [I-190, (S)—N-(1-(4-(cyclopropanesulfonamido)pyridin-2-yl)-3-(dimethylamino)propyl)-5-(6-ethoxypyrazin-2-yl)thiazole-2-carboxamide], for which the IC50 was below 100 nM.

For `O=C(NCc1cc(NS(=O)(=O)C2CC2)ccn1)c1ncc(-n2cnc3ccc(Cl)cc32)s1` [I-193, 5-(6-chloro-1H-benzo[d]imidazol-1-yl)-N-((4-(cyclopropanesulfonamido)pyridin-2-yl)methyl)thiazole-2-carboxamide], the IC50 fell in the range of 100 to 1000 nM.

In turn, `CCOc1cncc(-c2cnc(C(=O)NC(COC)c3cc(NS(=O)(=O)C4CC4)ccn3)s2)n1` (stereo not shown) [I-194] displayed an IC50 below 100 nM.

Consider `CCOc1cncc(-c2ccc(C(=O)NCc3nc(NS(=O)(=O)C4CC4)cs3)nc2)n1` [I-195, N-[(4-cyclopropanesulfonamido-1,3-thiazol-2-yl)methyl]-5-(6-ethoxypyrazin-2-yl)pyridine-2-carboxamide], for which the IC50 was 100 to 1000 nM.

Turning to `CCc1ccn2ncc(-c3cnc(C(=O)NCc4cc(NS(=O)(=O)C5CC5)ccn4)s3)cc12` [I-196, N-((4-(cyclopropanesulfonamido)pyridin-2-yl)methyl)-5-(5-ethylpyrrolo[1,2-b]pyridazin-3-yl)thiazole-2-carboxamide], the IC50 was below 100 nM.

`O=C(NCc1cc(NS(=O)(=O)C2CC2)ccn1)c1ncc(-c2cnn3ccc(Cl)cc23)s1` [I-197] registered an IC50 below 100 nM.

`CCOc1cncc(-c2cnc(C(=O)N[C@@H](CN3CCCC3)c3cc(NS(=O)(=O)C4CC4)ccn3)s2)n1` [I-198, (S)—N-(1-(4-(cyclopropanesulfonamido)pyridin-2-yl)-2-(pyrrolidin-1-yl)ethyl)-5-(6-ethoxypyrazin-2-yl)thiazole-2-carboxamide] returned an IC50 below 100 nM.

Take `CCOc1cncc(-c2cnc(C(=O)N[C@H](CN3CCCC3)c3cc(NS(=O)(=O)C4CC4)ccn3)s2)n1` [I-199, (R)—N-(1-(4-(cyclopropanesulfonamido)pyridin-2-yl)-2-(pyrrolidin-1-yl)ethyl)-5-(6-ethoxypyrazin-2-yl)thiazole-2-carboxamide]: the IC50 was below 100 nM.

Take `O=C(NCc1cc(NS(=O)(=O)C2CC2)ccn1)c1ncc(-c2cnn3cccc3c2)s1` [I-200, N-((4-(cyclopropanesulfonamido)pyridin-2-yl)methyl)-5-(pyrrolo[1,2-b]pyridazin-3-yl)thiazole-2-carboxamide]: the IC50 lay within 100 to 1000 nM.

`CCOc1cncc(-c2cnc(C(=O)NC(CCN(C)C)c3cc(NS(=O)(=O)C4CC4)ccn3)s2)n1` (stereo not shown) [I-201, N-(1-(4-(cyclopropanesulfonamido)pyridin-2-yl)-3-(dimethylamino)propyl)-5-(6-ethoxypyrazin-2-yl)thiazole-2-carboxamide] displayed an IC50 below 100 nM.

As to `O=C(NCc1cc(NS(=O)(=O)C2CC2)ccn1)c1ncc(-c2cnn3cc(Cl)ccc23)s1` [I-202], the IC50 lay within 100 to 1000 nM.

With `CCOc1cncc(-c2cnc(C(=O)N[C@H](CN3CCNCC3)c3cc(NS(=O)(=O)C4CC4)ccn3)s2)n1` [I-205, (R)—N-(1-(4-(cyclopropanesulfonamido)pyridin-2-yl)-2-(piperazin-1-yl)ethyl)-5-(6-ethoxypyrazin-2-yl)thiazole-2-carboxamide], the IC50 was below 100 nM.

The compound `CCOc1cncc(-c2cnc(C(=O)N[C@@H](CN3CCNCC3)c3cc(NS(=O)(=O)C4CC4)ccn3)s2)n1` [I-206, (S)—N-(1-(4-(cyclopropanesulfonamido)pyridin-2-yl)-2-(piperazin-1-yl)ethyl)-5-(6-ethoxypyrazin-2-yl)thiazole-2-carboxamide] displayed a half-maximal inhibitory concentration (IC50) below 100 nM.

In the case of `CCOc1cncc(-c2cnc(C(=O)NC(CN3CCN(C)CC3)c3cc(NS(=O)(=O)C4CC4)ccn3)s2)n1` (stereo not shown) [I-207], the IC50 is below 100 nM.

Regarding `CCOc1cncc(-c2cnc(C(=O)NC(CN3CCCC3)c3cc(NS(=O)(=O)C4CC4)ccn3)s2)n1` (stereo not shown) [I-208], the IC50 was below 100 nM.

The compound `CCOc1cncc(-c2cnc(C(=O)N3CCOCC3c3cc(NS(=O)(=O)C4CC4)ccn3)s2)n1` (stereo not shown) [I-209, N-(2-{4-[5-(6-ethoxypyrazin-2-yl)-1,3-thiazole-2-carbonyl]morpholin-3-yl}pyridin-4-yl)cyclopropanesulfonamide] displayed a 50% inhibitory concentration (IC50) below 100 nM.

As to `CCOc1cncc(-c2cnc(C(=O)N3CCNC[C@H]3c3cc(NS(=O)(=O)C4CC4)ccn3)s2)n1` [I-211, (S)—N-(2-(1-(5-(6-ethoxypyrazin-2-yl)thiazole-2-carbonyl)piperazin-2-yl)pyridin-4-yl)cyclopropanesulfonamide], the IC50 was 100 to 1000 nM.

For `CCOc1cncc(-c2cnc(C(=O)N3CCNC[C@@H]3c3cc(NS(=O)(=O)C4CC4)ccn3)s2)n1` [I-212, (R)—N-(2-(1-(5-(6-ethoxypyrazin-2-yl)thiazole-2-carbonyl)piperazin-2-yl)pyridin-4-yl)cyclopropanesulfonamide], the IC50 was below 100 nM.

With `O=C(NCc1cc(NS(=O)(=O)C2CC2)ccn1)c1ncc(-c2cnc3[nH]cc(CC(F)F)c3n2)s1` [I-215], the IC50 was below 100 nM.

In the case of `CCOc1cncc(-c2cnc(C(=O)NC(CN3CC(F)C3)c3cc(NS(=O)(=O)C4CC4)ccn3)s2)n1` (stereo not shown) [I-216], the IC50 is below 100 nM.

Compound `CCOc1cncc(-c2cnc(C(=O)NC(CN3CCNCC3)c3cc(NS(=O)(=O)C4CC4)ccn3)s2)n1` (stereo not shown) [I-217, N-(1-(4-(cyclopropanesulfonamido)pyridin-2-yl)-2-(piperazin-1-yl)ethyl)-5-(6-ethoxypyrazin-2-yl)thiazole-2-carboxamide] returned an IC50 below 100 nM.

On to `CCOc1cncc(-c2cnc(C(=O)N3CCN(C)CC3c3cc(NS(=O)(=O)C4CC4)ccn3)s2)n1` (stereo not shown) [I-218, N-(2-(1-(5-(6-ethoxypyrazin-2-yl)thiazole-2-carbonyl)-4-methylpiperazin-2-yl)pyridin-4-yl)cyclopropanesulfonamide], for which the IC50 is 100 to 1000 nM.

`CCOc1cncc(-c2sc(C(=O)N[C@@H](CC)c3cc(NS(=O)(=O)C4CC4)ccn3)nc2C)n1` [I-219, (S)—N-(1-(4-(cyclopropanesulfonamido)pyridin-2-yl)propyl)-5-(6-ethoxypyrazin-2-yl)-4-methylthiazole-2-carboxamide] had an IC50 below 100 nM.

`CCOc1cncc(-c2sc(C(=O)N[C@H](CC)c3cc(NS(=O)(=O)C4CC4)ccn3)nc2C)n1` [I-220, (R)—N-(1-(4-(cyclopropanesulfonamido)pyridin-2-yl)propyl)-5-(6-ethoxypyrazin-2-yl)-4-methylthiazole-2-carboxamide] gave an IC50 below 100 nM.

The compound `CCOc1cncc(-c2cnc(C(=O)N3CCNCC3c3cc(NS(=O)(=O)C4CC4)ccn3)s2)n1` (stereo not shown) [I-223, N-(2-(1-(5-(6-ethoxypyrazin-2-yl)thiazole-2-carbonyl)piperazin-2-yl)pyridin-4-yl)cyclopropanesulfonamide] displayed an IC50 of 100 to 1000 nM.

The compound `CCOc1cncc(-c2cnc(C(=O)NC(CN3CCCCC3)c3cc(NS(=O)(=O)C4CC4)ccn3)s2)n1` (stereo not shown) [I-224] showed an IC50 below 100 nM.

Turning to `CCOc1cncc(-c2cnc(C(=O)N3CCC[C@@H]3c3cncc(NS(=O)(=O)C4CC4)c3)s2)n1` [I-225, (R)—N-(5-(1-(5-(6-ethoxypyrazin-2-yl)thiazole-2-carbonyl)pyrrolidin-2-yl)pyridin-3-yl)cyclopropanesulfonamide], the IC50 is below 100 nM.

As for `CCOc1cncc(-c2cnc(C(=O)N3CCC[C@H]3c3cncc(NS(=O)(=O)C4CC4)c3)s2)n1` [I-226, (S)—N-(5-(1-(5-(6-ethoxypyrazin-2-yl)thiazole-2-carbonyl)pyrrolidin-2-yl)pyridin-3-yl)cyclopropanesulfonamide], the IC50 fell in the range of 100 to 1000 nM.

The compound `CCOc1cncc(-c2sc(C(=O)NC(CC)c3cc(NS(=O)(=O)C4CC4)ccn3)nc2C)n1` (stereo not shown) [I-227] gave an IC50 below 100 nM.

Regarding `CCOc1cncc(-c2cnc(C(=O)NC(CN3CCC3)c3cc(NS(=O)(=O)C4CC4)ccn3)s2)n1` (stereo not shown) [I-228], the IC50 was below 100 nM.

Take `CCOc1cncc(-c2cnc(C(=O)NCc3cc(NS(=O)(=O)C4CC4)ccn3)c(CN(C)C)c2)n1` [I-229]: the IC50 lay within 100 to 1000 nM.

Consider `CCOc1cncc(-c2cnc(C(=O)N3CCC[C@@H]3c3cccc(NS(=O)(=O)C4CC4)n3)s2)n1` [I-230, N-[6-[(2R)-1-[5-(6-ethoxypyrazin-2-yl)-1,3-thiazole-2-carbonyl]pyrrolidin-2-yl]pyridin-2-yl]cyclopropanesulfonamide], for which the IC50 is below 100 nM.

Broadly, the IC50 is the concentration that inhibits the measured activity by half.
